Experimental findings from patent EP4553083A1, “PEPTIDES AND THEIR USE FOR THE TREATMENT AND/OR PREVENTION OF MULTIPLE SCLEROSIS” (Cellerys AG, priority 2023, dated 2025) are described below.

Ends that are not written are not given here.

One data set has as its system RASGRP2 78-87-specific T cell clones (TCCs). The experiment in a line: T cell reactivity in RASGRP2 (78-87) specific T cell clones (3H-thymidine assay). It is filed as cell-based, human. As to conditions: 72 hours; four DRB1*15:01-restricted clones; presented by BLS DR2b cells; Figure 6. The protocol:
Four RASGRP2 78-87-specific T cell clones (TCCs) (cf. Wang et al., 2020, Cell, 183(5):1264-1281) were tested by 3H-thymidine incorporation (72 hours) for their responses against the biotinylated RASGRP2 (74-91) (SEQ ID NO: 2) peptide "bioRASGRP2 74-91" and a positive control, i.e. stimulation with anti-CD2/3/28-coupled beads. Each of the clones is DRB1*15:01-restricted.
Proliferation was measured 72 h after stimulation by 3H-thymidine (Hartmann Analytic, Braunschweig, Germany) incorporation in a scintillation counter (Wallac 1450, PerkinElmer, Rodgau-Jürgesheim, Germany). Depicted is the fold change over unstimulated control. Each dot represents the mean of 3 repeat wells for each clone. Peptides were presented in the assay by BLS cells transfected with DRA*01:01 and DRB1*15:01 (the heterodimer is referred to as BLS DR2b).
Regarding “biotinylated RASGRP2 (74-91): RASGRP2 (74-91) (SEQ ID NO: 2) coupled to a Biotin-PEG linker (Maleimide-PEG2-Biotin) (KTCHLVRYWISAFPAEFD; also: coupled to Maleimide-PEG2-Biotin linker, site not given here; listed as Homo sapiens)”, the “proliferative response (3H-thymidine incorporation)” value is reported as “positive proliferative response”.

A further data set relates to TCC14. The experiment in a line: Antigen specificity of TCC14 (co-cultivation with monocytes and peptide-coupled RBCs, fluorospot). It is filed as cell-based, human. As to conditions: irrelevant peptide; 48 hours; Figure 15. On the procedure:
In order to evaluate whether the IL-10 and IFN-γ secretion upon co-culturing TCC14 with active monocytes and peptide-coupled RBCs is antigen-specific, biotinylated SIN3A* peptide ([…]) (SEQ ID NO: 38) was coupled to RBCs and co-cultured with TCC14 and active monocytes. […] Therefore, it was tested if the SIN3A*-coupled RBCs have any effect on TCC14. Soluble SIN3A* peptide (QPVEFNHAIHYVN) (SEQ ID NO: 39) was used for stimulation.
Monocytes were magnetically isolated from PBMCs of a DR15 donor and seeded at 50×10^3 in each well. 25 ×10^3 of the TCC14 was seeded in each well (final volume 200 µl). Coupling to RBCs was performed with 1.58 mg/ml (0.132 mg/ml × 12) of the respective peptide. 200×10^3 RBCs were added to each well.
IFN-α was directly added into the wells at the time of seeding the cells at 10000 U/ml. In the samples with soluble peptides, 10 µM of the peptides was added to the wells. Plates were incubated for 48 hours and stained for IFN-γ, IL-10 and IL-17 according to the manufacturer's instructions (see fluorospot assay supra).
With “QPVEFNHAIHYVN [SIN3A*, irrelevant peptide, a tumor-specific antigen not recognized by TCC14]”, the “effect on the T cell clone (IL-10 and IFN-γ secretion)” value was “neither stimulatory nor inhibitory”.

System in a further data set: not listed separately
In words: Peptide solubility test in saline (visual: cloudy = insoluble, clear = soluble). Conditions: at a concentration of 10 mg/ml; visual assessment.
Description: MBP, MOG and PLP peptides were also tested.
Peptides were added to saline at different concentrations and it was visually assessed whether the resulting sample was cloudy (peptide insoluble) or clear (peptide soluble).
Consider “FRFTPFKQAVKETCA [TSTA3-4 (296-310), FRFTPFKQAVKETCA]”, for which the solubility in saline entry is on record as “soluble in saline”.

With “LSVGEEDEVS [TSTA3-3 (242-251), LSVGEEDEVS]”, the solubility in saline result was “soluble in saline”.

For “PHNSNFGYSYAKRMI [TSTA3-2 (136-150), PHNSNFGYSYAKRMI]”, the solubility in saline result is reported as “soluble in saline”.

For the substance “TAQTRALFEKVQPTH [TSTA3-1 (51-65), TAQTRALFEKVQPTH]”, the solubility in saline result was “soluble in saline”.

As for “KTCHLVRYWISAFPAEFD [RASGRP2 (74-91), KTCHLVRYWISAFPAEFD]”, the solubility in saline result is recorded as “soluble in saline”.

Staying with this data set, now noted: concentration not given; visual assessment.
Consider “SLQVKTCHLVRYWISAFPAEFDLNPE [RASGRP2 70-95]”, for which the solubility in saline result is “insoluble in saline”.

For the substance “LVRYWISAFPAEFDLNPE [RASGRP2 78-95, LVRYWISAFPAEFDLNPE]”, the solubility in saline result is on record as “insoluble in saline”.

“LVRYWISAFPAEFDL [RASGRP2 78-92, LVRYWISAFPAEFDL]”: the solubility in saline result is listed as “insoluble in saline”.

Regarding LVRYWISAFP [RASGRP2 78-87, LVRYWISAFP], the solubility in saline entry is “not soluble in saline”.

“SNSLQVKTCHLVRYWISAFPAEFDLNPELA [RASGRP2 68-97]”: the solubility in saline entry is on record as “insoluble in saline”.
